Literature values as cited in patent US11207302B2, “1,2,5-oxadiazoles as inhibitors of indoleamine 2,3-dioxygenase” (Incyte Corporation, priority 2008, dated 2021).

How the values were obtained:
[1] = tested on: P815 tumor; conditions: pre-immunized immune-competent mice challenged with murine tumor cells
[2] = tested on: LLC tumors; conditions: LLC tumors in C57Bl/6 mice, versus placebo

Cn1cc(C[C@H](N)C(=O)O)c2ccccc21 [Example 1-MT, 1-methyl-tryptophan]
growth of tumors [1]: inhibited | formation of tumors [2]: markedly delayed
